The term IC50 denotes the concentration needed to halve the response being measured.

This experiment deals with T1, human MRGPRX2 (Homo sapiens, UniProt Q96LB1).
T1 construct: expressed in transfected cells; host or cells: FlpIn TRex HEK293 (TRex-MRGPRX2-HEK), doxycycline-induced
T1 sequence (Q96LB1 1-330): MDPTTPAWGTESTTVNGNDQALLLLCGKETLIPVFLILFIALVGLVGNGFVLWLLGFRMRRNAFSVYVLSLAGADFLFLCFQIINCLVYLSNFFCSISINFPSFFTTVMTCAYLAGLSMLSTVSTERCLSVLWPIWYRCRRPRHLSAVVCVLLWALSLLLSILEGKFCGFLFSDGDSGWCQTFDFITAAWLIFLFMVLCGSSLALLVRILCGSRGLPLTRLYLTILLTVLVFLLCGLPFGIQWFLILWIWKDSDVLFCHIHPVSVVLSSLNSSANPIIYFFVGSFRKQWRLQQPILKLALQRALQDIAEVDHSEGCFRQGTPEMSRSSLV
Nature of the experiment: MRGPRX2 Activity Assay (IP-1 HTRF, antagonist mode). It counts as cell-based. Conditions: FlpIn TRex-MRGPRX2-HEK293 cells; versus 1 μM Cortistatin-14 agonist; 30 minutes preincubation. The procedure:
FlpIn TRex-MRGPRX2-HEK293 cells (herein TRex-MRPGRX2-HEK) stably transfected to express human MRGPRX2 were maintained at 37° C. with 5% CO2 and grown in DMEM supplemented with 10% FBS, 1% L-Glutamate, 1% penicillin/streptomycin, 100 ug/mL Hygromycin B, and 15 ug/mL Blasticidin.
GOI (MRGPRX2) expression was induced with 100 ng/mL of Doxycycline 18-24 hours prior to experiment, in flask. On the day of experiment, cells were lifted with TripLE Express and seeded in 384-well white walled opaque bottomed, assay plates, at 8,000 cells per well in 5 uL freshly made assay buffer (HBSS, 20 mM HEPES, 0.1% BSA and 10 mM LiCl). Compounds solubilized in 100% DMSO at 30 mM were serially diluted (1:4) first in 100% DMSO, and an intermediate plate of assay buffer was used to establish a final top concentration of 30 uM (in assay plate). Final DMSO concentration was kept constant at 1% across assay plates. […], at 30 mM stock concentration was solubilized in HBSS+0.1% BSA, stored at −20° C. in 5 μL aliquots and discarded after one freeze-thaw cycle. […].
Antagonist equilibrium was established with 30 minutes preincubation, followed by no wash, direct addition, and stimulation of agonist for 1 hour at 37° C./5% CO2. IP-1 standards and HTRF detection reagents were added according to the IP-one Gq kit protocol purchased from CisBio (part number 62IPAPEJ). The plate was read on an EnVision XCite plate reader. The HTRF ratio was then calculated from raw data (channel1/channel2×10,000) and analyzed using either GraphPad Prism or a custom Python script to calculate IC50 using Log[Antagonist] vs. response (4 parameter) nonlinear regression.
In general terms: Time-resolved FRET reads energy transfer from a long-lived donor to a nearby acceptor.
Turning to `C[C@@H](C(=O)Nc1cn2c(n1)[C@H](O)C[C@H]2c1cc(F)cc(F)c1)N1CCC(F)(F)[C@@H](c2ccc(=O)[nH]c2)C1` (single isomer, unassigned) [Compound 518], the IC50 was > 30000 nM. The figure for `O=C(Nc1cn(Cc2cc(F)cc(F)c2)cn1)[C@H]1C(F)(F)C12CCC2` [Compound 30, (S)—N-(1-(3,5-difluorobenzyl)-1H-imidazol-4-yl)-2,2-difluorospiro[2.3]hexane-1-carboxamide] is 258 nM; for `C[C@H](C(=O)Nc1cn2c(n1)CC[C@H]2c1cc(F)cc(F)c1)N1CCC(F)(F)[C@@H](c2cc[n+]([O-])cc2)C1` (single isomer, unassigned) [Compound 486] it is 1180 nM; for `C[C@@H](C(=O)Nc1cn(Cc2cccc(Cl)c2F)cn1)N1CCC(F)(F)[C@@H](c2cc[n+]([O-])cc2)C1` [Compound 64, 4-((S)-1-((S)-1-((1-(3-chloro-2-fluorobenzyl)-1H-imidazol-4-yl)amino)-1-oxopropan-2-yl)-4,4-difluoropiperidin-3-yl)pyridine 1-oxide] it is 78 nM.

Consider `C[C@@H](C(=O)Nc1cn2c(n1)[C@@H](O)C[C@@H]2c1cc(F)cc(F)c1)N1CCC(F)(F)[C@@H](c2ccc(=O)[nH]c2)C1` (single isomer, unassigned) [Compound 516], for which the 50% inhibitory concentration (IC50) is > 30000 nM.

As to `Cc1nc(NC(=O)[C@@H](C)N2CCC(F)(F)[C@@H](c3cc[n+]([O-])cc3)C2)cn1Cc1cc(F)cc(C#N)c1` (single isomer, unassigned) [Compound 18], the IC50 was > 10000 nM. The compound `C[C@@H](C(=O)Nc1cn(Cc2cccc(Cl)c2)cn1)N1CCC(F)(F)[C@@H](c2cc[n+]([O-])cc2)C1` [Compound 43, 4-((S)-1-((S)-1-((1-(3-chlorobenzyl)-1H-imidazol-4-yl)amino)-1-oxopropan-2-yl)-4,4-difluoropiperidin-3-yl)pyridine 1-oxide] had an IC50 of 131 nM. `C[C@@H](C(=O)Nc1cn2c(n1)CC[C@@H]2c1cc(F)cc(F)c1)N1CCC(F)(F)[C@@H](c2c[nH]c(=O)cn2)C1` (single isomer, unassigned) [Compound 527]: the IC50 came out at 102 nM. The IC50 values of the last two compounds are within 1.5-fold of each other. With `C[C@@H](C(=O)Nc1cn2c(n1)CC[C@@H]2c1cc(F)cc(F)c1)N1CCC2(CC2)[C@@H](c2cc[n+]([O-])cc2)C1` (single isomer, unassigned) [Compound 521], the IC50 was determined as 4750 nM. For `C[C@@H](C(=O)Nc1cn2c(n1)CC[C@@H]2c1cc(F)cc(F)c1)N1CCC(F)(F)[C@H](c2ccc(=O)[nH]c2)C1` (single isomer, unassigned) [Compound 495], the IC50 was > 30000 nM. Then `C[C@@H](C(=O)Nc1nc2ccccc2s1)N1CCC(F)(F)[C@@H](c2cc[n+]([O-])cc2)C1` (single isomer, unassigned) [Compound 84], with 12700 nM; and `C[C@@H](C(=O)Nc1cn(Cc2ccncc2Cl)cn1)N1CCC(F)(F)[C@@H](c2cc[n+]([O-])cc2)C1` [Compound 63, 4-((S)-1-((S)-1-((1-((3-chloropyridin-4-yl)methyl)-1H-imidazol-4-yl)amino)-1-oxopropan-2-yl)-4,4-difluoropiperidin-3-yl)pyridine 1-oxide], with 114 nM.

For `C[C@@H](C(=O)Nc1cn2c(n1)CC[C@@H]2c1cc(F)cc(F)c1)N1CCC(F)(F)[C@@](C)(c2cc[n+]([O-])cc2)C1` (single isomer, unassigned) [Compound 519], the IC50 was > 30000 nM. For the compound `C[C@@H](C(=O)Nc1cn2c(n1)CC[C@@H]2c1cc(F)cc(F)c1)N1CCC(F)(F)[C@H](c2c[nH]c(=O)cn2)C1` (single isomer, unassigned) [Compound 528], the half-inhibitory concentration (IC50) stood at 6.8 nM. This lies in the single-digit nanomolar range. Then `Cc1nc(NC(=O)[C@@H](C)N2CCC(F)(F)[C@@H](c3cc[n+]([O-])cc3)C2)cn1Cc1ccc(F)cc1F` (single isomer, unassigned) [Compound 10], with 1610 nM; and `C[C@@H](C(=O)Nc1cn2c(n1)CC[C@@H]2c1cc(F)cc(F)c1)N1CCCCC1` (single isomer, unassigned) [Compound 497], with > 30000 nM. In turn, `C[C@@H](C(=O)Nc1cn(Cc2cc(F)cc(F)c2)cn1)N1CCC(F)(F)[C@H](c2c[nH]c(=O)c(CO)c2)C1` (single isomer, unassigned) [Compound 73] registered an IC50 of 8560 nM. Compound `C[C@@H](C(=O)Nc1cn(Cc2cc(F)ccc2F)cn1)N1CCC(F)(F)[C@@H](c2cc[n+]([O-])cc2)C1` [Compound 40, 4-((S)-1-((S)-1-((1-(2,5-difluorobenzyl)-1H-imidazol-4-yl)amino)-1-oxopropan-2-yl)-4,4-difluoropiperidin-3-yl)pyridine 1-oxide] came in with an IC50 of 25 nM. The figure for `Cc1nc(NC(=O)[C@@H](C)N2CCC(F)(F)[C@@H](c3cc[n+]([O-])cc3)C2)cn1Cc1cc(F)cc(F)c1` (single isomer, unassigned) [Compound 20] is 193 nM; for `C[C@H](C(=O)Nc1cn(Cc2ccc(F)cc2F)cn1)N1CCC(F)(F)[C@H](c2cc[n+]([O-])cc2)C1` (single isomer, unassigned) [Compound 4] it is > 10000 nM; for `C[C@@H](C(=O)Nc1cn(Cc2cc(F)c(Cl)c(F)c2)cn1)N1CCC(F)(F)[C@@H](c2cc[n+]([O-])cc2)C1` [Compound 44, 4-((S)-1-((S)-1-((1-(4-chloro-3,5-difluorobenzyl)-1H-imidazol-4-yl)amino)-1-oxopropan-2-yl)-4,4-difluoropiperidin-3-yl)pyridine 1-oxide] it is 241 nM. In turn, `C[C@@H](C(=O)Nc1cn(Cc2ccc(F)c(F)c2F)cn1)N1CCC(F)(F)[C@@H](c2cc[n+]([O-])cc2)C1` [Compound 42, 4-((S)-4,4-difluoro-1-((S)-1-oxo-1-((1-(2,3,4-trifluorobenzyl)-1H-imidazol-4-yl)amino)propan-2-yl)piperidin-3-yl)pyridine 1-oxide] registered a half-maximal inhibitory concentration (IC50) of 169 nM. For the compound `C[C@H](C(=O)Nc1cn([C@H](C)c2cc(F)cc(F)c2)cn1)N1CCC(F)(F)[C@@H](c2cc[n+]([O-])cc2)C1` (single isomer, unassigned) [Compound 16], the IC50 is > 10000 nM. Consider `C[C@@H](C(=O)Nc1cn2c(n1)CC[C@H]2c1cc(F)cc(F)c1)N1CCOCC1` (single isomer, unassigned) [Compound 514], for which the IC50 was > 30000 nM.

In turn, `C[C@@H](C(=O)Nc1cn2c(n1)CC[C@@H]2c1cc(F)cc(F)c1)N1CCC2(CC2)[C@H](c2cc[n+]([O-])cc2)C1` (single isomer, unassigned) [Compound 522] showed a half-inhibitory concentration (IC50) of 229 nM. For `[2H]C([2H])(c1cc(F)cc(F)c1)n1cnc(NC(=O)[C@H](C)N2CCC(F)(F)[C@@H](c3cc[n+]([O-])cc3)C2)c1` [Compound 52, 4-((S)-1-((S)-1-((1-((3,5-difluorophenyl)methyl-d2)-1H-imidazol-4-yl)amino)-1-oxopropan-2-yl)-4,4-difluoropiperidin-3-yl)pyridine 1-oxide], the IC50 stood at 22 nM. Take `C[C@@H](C(=O)Nc1nc(Cc2cc(F)cc(F)c2)no1)N1CCC(F)(F)[C@@H](c2cc[n+]([O-])cc2)C1` (single isomer, unassigned) [Compound 58]: the half-inhibitory concentration (IC50) was > 10000 nM. Turning to `C[C@H](C(=O)Nc1cn(Cc2ccc(F)cc2F)cn1)N1CCC(F)(F)[C@@H](c2cc[n+]([O-])cc2)C1` (single isomer, unassigned) [Compound 2], the IC50 came out at 2950 nM. Regarding `C[C@@H](C(=O)Nc1cn(Cc2ccc(Cl)cc2F)cn1)N1CCC(F)(F)[C@@H](c2cc[n+]([O-])cc2)C1` [Compound 31, 4-((S)-1-((S)-1-((1-(4-chloro-2-fluorobenzyl)-1H-imidazol-4-yl)amino)-1-oxopropan-2-yl)-4,4-difluoropiperidin-3-yl)pyridine 1-oxide], the IC50 amounted to 361 nM. Take `C[C@@H](C(=O)Nc1cn(Cc2ccccc2F)cn1)N1CCC(F)(F)[C@@H](c2cc[n+]([O-])cc2)C1` [Compound 37, 4-((S)-4,4-difluoro-1-((S)-1-((1-(2-fluorobenzyl)-1H-imidazol-4-yl)amino)-1-oxopropan-2-yl)piperidin-3-yl)pyridine 1-oxide]: the 50% inhibitory concentration (IC50) came to 54 nM. Then `C[C@@H](C(=O)Nc1cn(Cc2ccc(F)cc2)cn1)N1CCC(F)(F)[C@@H](c2cc[n+]([O-])cc2)C1` [Compound 36, 4-((S)-4,4-difluoro-1-((S)-1-((1-(4-fluorobenzyl)-1H-imidazol-4-yl)amino)-1-oxopropan-2-yl)piperidin-3-yl)pyridine 1-oxide], with 209 nM.
